Earlier results, collected in patent US9346789B2, “Combinations of AKT inhibitor compounds and abiraterone, and methods of use” (Genentech, Inc., priority 2011, dated 2016).

Target: T1, topoisomerase I (Homo sapiens, UniProt P11387)
T1 sequence (P11387 1-765): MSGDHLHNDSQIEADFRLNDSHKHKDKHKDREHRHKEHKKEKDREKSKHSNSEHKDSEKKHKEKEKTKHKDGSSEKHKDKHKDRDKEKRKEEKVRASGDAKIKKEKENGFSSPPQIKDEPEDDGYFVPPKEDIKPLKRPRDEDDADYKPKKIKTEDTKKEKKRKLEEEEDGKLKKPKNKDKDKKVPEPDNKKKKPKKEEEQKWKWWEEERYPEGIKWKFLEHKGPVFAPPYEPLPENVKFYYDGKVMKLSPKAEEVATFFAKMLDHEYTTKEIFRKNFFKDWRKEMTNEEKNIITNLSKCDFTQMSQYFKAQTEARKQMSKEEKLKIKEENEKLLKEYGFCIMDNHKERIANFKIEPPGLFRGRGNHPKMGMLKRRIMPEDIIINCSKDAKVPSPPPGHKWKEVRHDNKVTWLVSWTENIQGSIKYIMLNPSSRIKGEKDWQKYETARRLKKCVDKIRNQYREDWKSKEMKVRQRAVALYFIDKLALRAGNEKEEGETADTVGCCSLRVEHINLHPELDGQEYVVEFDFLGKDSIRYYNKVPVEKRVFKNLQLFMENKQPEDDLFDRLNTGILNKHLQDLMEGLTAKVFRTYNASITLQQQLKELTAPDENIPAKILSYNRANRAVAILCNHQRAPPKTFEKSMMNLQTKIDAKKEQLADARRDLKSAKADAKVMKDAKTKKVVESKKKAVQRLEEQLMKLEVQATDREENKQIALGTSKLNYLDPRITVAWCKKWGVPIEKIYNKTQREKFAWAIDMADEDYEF
Conditions: active metabolite versus irinotecan itself

CCc1c2c(nc3ccc(O)cc13)-c1cc3c(c(=O)n1C2)COC(=O)[C@]3(O)CC [SN-38, 7-ethyl-10-hydroxy-camptothecin]
activity relative to irinotecan: 200 times
